Laboratory results taken from patent US8354398B2, “Substituted isoxazole compounds” (Bristol-Myers Squibb Company, priority 2009, dated 2013).

Key:
[1] = tested on: circulating lymphocytes; conditions: animals and humans; cited from earlier work
[2] = clinical studies, first 24 hours of treatment; cited from earlier work
[3] = molecular target: T1, S1P3 (Homo sapiens, UniProt Q99500); test: Method A: Receptor [35S] GTPγS Binding Assay, membranes from EDG3-Ga15-bla HEK293T cells; type: biochemical; parameters: expressed in transfected cells; host or cells: EDG3-Ga15-bla HEK293T cells; conditions: EDG3-Ga15-bla HEK293T cell membranes
Description: (§1) Compounds were loaded in a 384 Falcon v-bottom plate (0.5 μl/well in a 3-fold dilution). Membranes prepared from S1P1/CHO cells or EDG3-Ga15-bla HEK293T cells were added to the compound plate (40 μl/well, final protein […]) with MULTIDROP®. [^35S]GTP (1250 Ci/mmol, Perkin Elmer) was diluted in assay buffer: 20 mM HEPES, pH7.5, 10 mM MgCl2, 150 mM NaCl, 1 mM EGTA, 1 mM DTT, 10 μM GDP, 0.1% fatty acid free BSA, and 10 mg/ml Saponin to 0.4 nM. 40 μl of the [^35S] GTP solution was added to the compound plate with a final concentration of 0.2 nM. The reaction was kept at room temperature for 45 min. At the end of incubation, all the mixtures in the compound plate were transferred to a 384 well FB filter plates via GPCR robot system. The filter plate was washed with water 4 times by using the modified manifold Embla plate washer and dried at 60° C. for 45 min. 30 μl of MicroScint 20 scintillation fluid was added to each well for counting at Packard TOPCOUNT®. EC50 is defined as the agonist concentration that corresponds to 50% of the Ymax (maximal response) obtained for each individual compound tested.
(§2) Compounds of the present invention and Comparative Compound A were tested in the Receptor [^35S] GTPγS Binding Assays (Method A) and Receptor [35S] In some instances, the value is an average of multiple experiments where N is the number of experiments conducted that provided satisfactory dose response curves. When more than one batch of an example was tested, the value presented is from a batch which allowed a comparison of GTPγS S1P1 and GTPγS S1P3 in which the most number of experiments were performed. Preferably, the same batch was examined in Method A and Method B. Data was not averaged across different batches of an example compound.
Target sequence in this assay (Q99500 whole entry): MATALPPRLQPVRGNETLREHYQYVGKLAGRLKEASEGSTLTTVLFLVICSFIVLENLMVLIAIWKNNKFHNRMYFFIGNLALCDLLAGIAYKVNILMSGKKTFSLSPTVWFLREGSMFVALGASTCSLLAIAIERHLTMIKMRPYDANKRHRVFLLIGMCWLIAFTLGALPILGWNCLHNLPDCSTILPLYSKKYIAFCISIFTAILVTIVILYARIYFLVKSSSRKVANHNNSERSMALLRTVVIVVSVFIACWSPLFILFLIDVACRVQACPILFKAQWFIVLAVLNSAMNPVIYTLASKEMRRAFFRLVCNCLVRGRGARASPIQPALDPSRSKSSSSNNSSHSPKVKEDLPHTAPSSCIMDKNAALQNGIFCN

[4] = molecular target: T2, S1P1 (Homo sapiens, UniProt P21453); test: Method A: Receptor [35S] GTPγS Binding Assay, membranes from S1P1/CHO cells; type: biochemical; parameters: expressed in transfected cells; host or cells: S1P1/CHO cells
Description: as §1, §2

[5] = molecular target: T2, S1P1; test: Method B: Receptor [35S] GTPγS SPA Binding Assay, membranes from S1P1 transfected CHO cells; type: biochemical; parameters: expressed in transfected cells; host or cells: S1P1/CHO cells
Description: (§3) Membranes prepared from S1P1 or S1P3 transfected CHO cells (2 μg protein) were incubated in 96-well white plates (CORNING® 3693) with test compounds diluted in DMSO, in 50 μl of reaction mixture containing 7.5 μl WGA-PVT beads (20 mg/ml), and 5 μM GDP, 20 mM HEPES pH 7.4, 100 mM NaCl, 1 mM EDTA, 5 mM MgCl2, 10 μg/ml saponin, 0.1% BSA, and 1 μM leupeptin. The assay was initiated with the addition of 25 μl of 0.2 nM [^35S]-GTPγS (1250 Ci/mmol; NEN) in assay buffer. After 90 min incubation at room temperature, spin the plate at 1000 rpm for 5 min. The bound radionuclides were measured at TOPCOUNT®, expressed as % response relative to S1P (1 μM) activation. Data was analyzed using the four parameter logistic equation in Excel. The four parameters in the equation, Y=A+((B−A)/(1+((EC50/X)^D))), are described as following: A is the Y value (agonist activity) at the bottom plateau; B is the Y value at the top plateau; EC50 is the X value (agonist concentration) when the response is halfway between bottom and top; D is Hill coefficient. Curves were not generated for compounds having Ymax values were below 50%.
as §2

[6] = tested on: circulating lymphocytes; test: Blood Lymphocyte Reduction Assay (BLR) in mice; type: in vivo; conditions: BALB/c mice, oral, vs vehicle group
Description: (§4) Lewis rats or BALB/c mice were dosed orally with test article (as a solution or suspension in the vehicle) or vehicle alone (polyethylene glycol 300, “PEG300”). Blood was drawn at 4 hr and 24 h by retro-orbital bleeding. Blood lymphocyte counts were determined on an ADVIA® 120 Hematology Analyzer (Siemens Healthcare Diagnostics). The results were measured as a reduction in the percentage of circulating lymphocytes as compared to the vehicle treated group at the 4 hr and 24 hr measurement. The results represent the average results of all animals within each treatment group (n=3-4).
(§5) Examples 1 and 2 were tested in the Blood Lymphocyte Reduction assay (BLR) described hereinabove and the results are shown in Table D for rats and Table E for mice.

[7] = molecular target: T1, S1P3; test: Method B: Receptor [35S] GTPγS SPA Binding Assay, membranes from S1P3 transfected CHO cells; type: biochemical; parameters: expressed in transfected cells; host or cells: CHO cells; conditions: S1P3 transfected CHO cell membranes, NC = a satisfactory dose response curve was not obtained
Description: as §3, §2
Target sequence in this assay (Q99500 whole entry, species assumed): as the sequence (Q99500 whole entry) above

[8] = tested on: circulating lymphocytes; test: Blood Lymphocyte Reduction Assay (BLR) in rats; type: in vivo; conditions: Lewis rats, oral, vs vehicle group
Description: as §4, §5

[9] = molecular target: T2, S1P1; test: S1P1 Binding Assay (33P-S1P ligand competition, membranes from CHO cells); parameters: expressed in transfected cells; host or cells: CHO cells; conditions: membranes of CHO cells expressing human S1P1; 0.03 nM 33P-S1P; 60 min room temperature
Description: Membranes were prepared from CHO cells expressing human S1P1. Cells were dissociated in buffer containing 20 mM HEPES, pH 7.5, 50 mM NaCl, 2 mM EDTA and Protease Inhibitor cocktail (Roche), and disrupted on ice using the Polytron homogenizer. The homogenate was centrifuged at 20,000 rpm (48,000 g) and the supernatant was discarded. The membrane pellets were resuspended in buffer containing 50 mM HEPES, pH 7.5, 100 mM NaCl, 1 mM MgCl2, 2 mM EDTA and stored in aliquots at −80° C. after protein concentration determination.
Membranes (2 μg/well) and 0.03 nM final concentration of ^33P-S1P ligand (1 mCi/ml, American Radiolabeled Chemicals) were added to the compound plates. Binding was performed for 60 min at room temperature, terminated by collecting the membranes onto GF/B filter plates, and radioactivity was measured by TOPCOUNT®. The competition data of the test compounds over a range of concentrations was plotted as percentage inhibition of radioligand specific binding. The IC50 is defined as the concentration of competing ligand needed to reduce specific binding by 50%.
Compounds of the present invention and Comparative Compound A were tested in the S1P1 binding assay described hereinabove and the results rounded to two digits, shown in Table A were obtained. In some instances, the value is an average of multiple experiments where N is the number of experiments conducted that provided satisfactory dose response curves. When more than one batch of an example was tested, the value presented is from the batch which allowed a comparison of GTPγS S1P1 and GTPγS S1P3 in Method A (Data shown in Table B). Data was not averaged across different batches of an example compound.

T2 sequence (P21453 whole entry): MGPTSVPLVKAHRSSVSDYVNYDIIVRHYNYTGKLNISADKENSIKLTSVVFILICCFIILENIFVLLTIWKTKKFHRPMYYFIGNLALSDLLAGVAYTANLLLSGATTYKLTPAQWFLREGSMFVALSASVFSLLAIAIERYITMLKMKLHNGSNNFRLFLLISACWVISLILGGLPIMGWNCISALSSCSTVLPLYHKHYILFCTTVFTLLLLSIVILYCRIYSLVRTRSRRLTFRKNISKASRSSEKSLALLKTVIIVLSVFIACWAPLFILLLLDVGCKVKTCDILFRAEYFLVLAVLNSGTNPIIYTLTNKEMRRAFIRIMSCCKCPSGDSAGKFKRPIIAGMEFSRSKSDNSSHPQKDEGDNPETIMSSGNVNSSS

CCCCCCCCc1ccc(CCC(N)(CO)CO)cc1 [FTY720]
circulating lymphocytes [1]: reduce circulating lymphocytes
bradycardia on treatment [2]: results in bradycardia

O=C(O)C1CN(Cc2ccc(-c3noc(-c4noc(-c5ccccc5)c4C(F)(F)F)n3)cc2)C1 [Example 2, 1-(4-(5-(5-Phenyl-4-(trifluoromethyl)isoxazol-3-yl)-1,2,4-oxadiazol-3-yl)benzyl)azetidine-3-carboxylic acid]
EC50 [3]: 3600 nM
EC50 ([4]; Method A, S1P1/CHO cell membranes): 1.7 nM
GTPγS S1P3/S1P1 (Method A) ([4]; ratio of GTPγS S1P3 EC50 to GTPγS S1P1 EC50, Method A): 2,100
EC50 ([5]; Method B SPA, S1P1 transfected CHO cell membranes, NC = a satisfactory dose response curve was not obtained): 0.076 nM
GTPγS S1P3/S1P1 (Method B) ([5]; ratio of GTPγS S1P3 EC50 to GTPγS S1P1 EC50, Method B): 4,600
% reduction in lymphocytes at 4 hr. ([6]; 0.001 mg/kg): −26%
% reduction in lymphocytes at 24 hr. ([6]; 0.001 mg/kg): 17%
% reduction in lymphocytes at 4 hr. ([6]; 0.01 mg/kg): −4%
% reduction in lymphocytes at 24 hr. ([6]; 0.01 mg/kg): 15%
% reduction in lymphocytes at 4 hr. ([6]; 0.1 mg/kg): 70%
% reduction in lymphocytes at 24 hr. ([6]; 0.1 mg/kg): 62%
% reduction in lymphocytes at 4 hr. ([6]; 1.0 mg/kg): 83%
% reduction in lymphocytes at 24 hr. ([6]; 1.0 mg/kg): 84%
EC50 [7]: 350 nM
% reduction in lymphocytes at 4 hr. ([8]; 0.03 mg/kg): 70%
% reduction in lymphocytes at 24 hr. ([8]; 0.03 mg/kg): 56%
% reduction in lymphocytes at 4 hr. ([8]; 0.3 mg/kg): 80%
% reduction in lymphocytes at 24 hr. ([8]; 0.3 mg/kg): 79%
% reduction in lymphocytes at 4 hr. ([8]; 1.0 mg/kg): 84%
% reduction in lymphocytes at 24 hr. ([8]; 1.0 mg/kg): 85%
IC50 [9]: 0.05 nM
